Values after ≈ are worked out from the molar mass of the structure shown. Counter-ions that a name gives are not always drawn. Like-named read-outs stand apart in the source and are kept apart here.
What was measured:
Assay in all cases: Fungal susceptibility test, broth microdilution method (MIC)
Assay type in all cases: cell-based
[1] = tested on: Candida albicans TIMM 1623; conditions: TIMM1623, 48 h
Protocol: (§1) The fungal susceptibility tests on test substances were conducted by the broth microdilution method equivalent to Clinical and Laboratory Standards Institute method. The medium used in the susceptibility tests was RPMI1640 adjusted to pH 7.0 with 0.165 mol/L morpholinepropanesulfonic acid (MOPS) and 50% sodium hydroxide (RPMI/MOPS). Each test substance was dissolved in DMSO and serially diluted in 2-fold increments with DMSO on a 96-well microplate. Then, the dilutions were dispensed by 1 μL to a 96-well microplate. Candida albicans TIMM 1623 cultured overnight at 35° C. in Sabouraud's agar medium was suspended in sterile saline. The number of cells was counted under a biological microscope, and the fungal suspension was diluted with RPMI/MOPS to prepare the inoculum solution (approximately 1×10^3 cells/mL). Alternatively, Candida albicans TIMM 1623 stored at −80° C. was diluted with RPMI/MOPS to prepare the inoculum solution (approximately 1×10^3 CFU/mL). Aspergillus fumigatus TIMM 0063 stored at 5° C. was diluted with RPMI/MOPS to prepare the inoculum solution (approximately 1×10^4 CFU/mL). Trichophyton rubrum NBRC 5467 stored at 5° C. or −80° C. was diluted with RPMI/MOPS to prepare the inoculum solution (approximately 2×10^3 CFU/mL). The 199 μL of inoculum solution was dispensed to each well to prepare the microplate containing the designated concentrations of test substance, medium and fungal cells. Candida albicans and Aspergillus fumigatus were cultured at 35° C. for 2 days. Trichophyton rubrum was cultured at 35° C. for 4 days. After the completion of culture, MIC was determined by visual observation. The MICs of Candida albicans and Aspergillus fumigatus were set to the lowest concentration at which approximately 50% growth inhibition was seen, when compared with a growth control without the addition of the test substance. The MIC of Trichophyton rubrum was set to the lowest concentration at which approximately 80% growth inhibition was seen, when compared with a growth control without the addition of the test substance.

[2] = tested on: Aspergillus fumigatus TIMM 0063; conditions: TIMM0063, 48 h
Protocol: as §1

[3] = tested on: Trichophyton rubrum NBRC 5467; conditions: NBRC5467, 96 h
Protocol: as §1

[4] = RPMI/MOPS pH 7.0, 35° C. for 2 days, visual, lowest concentration with approximately 50% growth inhibition, read-out: MIC (μg/mL) C. albicans TIMM1623
[5] = RPMI/MOPS pH 7.0, 35° C. for 2 days, visual, lowest concentration with approximately 50% growth inhibition, read-out: MIC (μg/mL) A. fumigatus TIMM 0063
[6] = RPMI/MOPS pH 7.0, 35° C. for 4 days, visual, lowest concentration with approximately 80% growth inhibition, read-out: MIC (μg/mL) T. rubrum NBRC5467
[7] = pH 7, read-out: MIC (μg/mL) A. fumigatus TIMM 0063
[8] = pH 7, read-out: MIC (μg/mL) T. rubrum NBRC5467
[9] = pH 7, read-out: MIC (μg/mL) C. albicans TIMM1623

MIC [1, 4] [µg/mL]	Compound	MIC [3, 8] [µg/mL]	MIC [1, 9] [µg/mL]	other results
0.0625 (≈ 0.139 µM)	CCN(C)/C=N/c1cc(C)c(Cc2nc(-c3ccc(C(=O)N(C)CC)cc3)cs2)cc1C [Example 42, N-Ethyl-4-{2-[4-({(E)-[ethyl(methyl)amino]methylidene}amino)-2,5-dimethylbenzyl]-1,3-thiazol-4-yl}-N-methylbenzamide]	–	–	–
0.0625	CCN(C)/C=N/c1cc(C)c(Cc2nc(C(=O)c3ccc(Cl)cc3)cs2)cc1C [Example 27, N′-[4-({4-[(4-Chlorophenyl)carbonyl]-1,3-thiazol-2-yl}methyl)-2,5-dimethylphenyl]-N-ethyl-N-methylimidoformamide hydrobromide]	–	–	MIC [2, 5]: 0.0625 µg/mL
0.0313 (≈ 0.0827 µM)	CCN(C)/C=N/c1cc(C)c(Cc2nc(-c3ccc(C)cc3)ns2)cc1C [Example 16, N′-(2,5-Dimethyl-4-{[3-(4-methylphenyl)-1,2,4-thiadiazol-5-yl]methyl}phenyl)-N-ethyl-N-methylimidoformamide]	–	–	MIC [2, 5]: 0.0313 µg/mL (≈ 0.0827 µM); MIC [3, 6]: 0.002 µg/mL (≈ 0.00528 µM)
–	CCN(C)/C=N/c1cc(C)c(Cc2nc(-c3ccc(C)cc3F)cs2)cc1C [Example 59, N-Ethyl-N′-(4-{[4-(2-fluoro-4-methylphenyl)-1,3-thiazol-2-yl]methyl}-2,5-dimethylphenyl)-N-methylimidoformamide dihydrochloride]	0.0005	0.0156	MIC [2, 7]: 0.0313 µg/mL
0.0625	CCN(C)/C=N/c1cc(C)c(Cc2nc(-c3cnc(OC)cn3)cs2)cc1C [Example 26, N-Ethyl-N′-(4-{[4-(5-methoxypyrazin-2-yl)-1,3-thiazol-2-yl]methyl}-2,5-dimethylphenyl)-N-methylimidoformamide hydrobromide]	–	–	MIC [2, 5]: 0.0625 µg/mL
–	Cc1ccc(-c2csc(Cc3cc(C)c(/N=C/N4CCCC4)cc3C)n2)cc1 [Example 1, 2,5-Dimethyl-4-{[4-(4-methylphenyl)-1,3-thiazol-2-yl]methyl}-N-[(E)-pyrrolidin-1-ylmethylidene]aniline]	–	–	MIC [2, 5]: 0.0625 µg/mL (≈ 0.16 µM); MIC [3, 6]: 0.0039 µg/mL (≈ 0.01 µM)
0.0156	CCN(C)/C=N/c1cc(C)c(Cc2nc(-c3cc(F)c(C)cc3F)cs2)cc1C [Example 58, N′-(4-{[4-(2,5-Difluoro-4-methylphenyl)-1,3-thiazol-2-yl]methyl}-2,5-dimethylphenyl)-N-ethyl-N-methylimidoformamide hydrobromide]	–	–	MIC [2, 5]: 0.0625 µg/mL; MIC [3, 6]: 0.001 µg/mL
–	CCN(C)/C=N/c1cc(C)c(Cc2nc(-c3ncc(C(C)(C)C)s3)cs2)cc1C [Example 20, N′-{4-[(5-Tert-butyl-2,4′-bi-1,3-thiazol-2′-yl)methyl]-2,5-dimethylphenyl}-N-ethyl-N-methylimidoformamide dihydrochloride]	0.002	0.0313	–
–	CCN(C)/C=N/c1cc(C)c(Cc2nc(-c3ccc(C(=O)NC(C)(C)C)cc3)cs2)cc1C [Example 24, N-Tert-butyl-4-{2-[4-({(E)-[ethyl(methyl)amino]methylidene}amino)-2,5-dimethylbenzyl]-1,3-thiazol-4-yl}benzamide dihydrochloride]	0.0039	0.0313	–
–	CCN(C)/C=N/c1cc(C)c(Cc2nc(-c3ccc(C(=O)OC)cc3)cs2)cc1C [Example 14, Methyl 4-{2-[4-({(E)-[ethyl(methyl)amino]methylidene}amino)-2,5-dimethylbenzyl]-1,3-thiazol-4-yl}benzoate dihydrochloride]	–	0.0625	–
–	CCN(C)/C=N/c1cc(C)c(Cc2nc(-c3cnc(C(C)(C)C(F)(F)F)cn3)cs2)cc1C [Example 4, N′-[2,5-Dimethyl-4-({4-[5-(1,1,1-trifluoro-2-methylpropan-2-yl)pyrazin-2-yl]-1,3-thiazol-2-yl}methyl)phenyl]-N-ethyl-N-methylimidoformamide hydrochloride]	0.002	0.0313	–
0.0156 (≈ 0.0383 µM)	CCN(C)/C=N/c1cc(C)c(Cc2nc(COc3ccc(C)cc3)cs2)cc1C [Example 60, N′-[2,5-Dimethyl-4-({4-[(4-methylphenoxy)methyl]-1,3-thiazol-2-yl}methyl)phenyl]-N-ethyl-N-methylimidoformamide]	–	–	MIC [3, 6]: 0.001 µg/mL (≈ 0.00245 µM)
–	CCN(C)/C=N/c1cc(C)c(Cc2nc(C(C)(C)C)cs2)cc1C [Example 29, N′-{4-[(4-Tert-butyl-1,3-thiazol-2-yl)methyl]-2,5-dimethylphenyl}-N-ethyl-N-methylimidoformamide dihydrochloride]	0.0039	0.0625	–
–	CCN(C)/C=N/c1cc(C)c(Cc2nc(-c3ccc(C)cc3)cs2)cc1C [Example 3, N′-(2,5-Dimethyl-4-{[4-(4-methylphenyl)-1,3-thiazol-2-yl]methyl}phenyl)-N-ethyl-N-methylimidoformamide dihydrochloride]	0.0005	0.0156	MIC [2, 7]: 0.0156 µg/mL
–	CCN(C)/C=N/c1cc(C)c(Cc2nc(-c3ccc(C(C)(C)C)cc3)cs2)cc1C [Example 17, N′-(4-{[4-(4-Tert-butylphenyl)-1,3-thiazol-2-yl]methyl}-2,5-dimethylphenyl)-N-ethyl-N-methylimidoformamide dihydrochloride]	0.002	0.0313	–
–	CCN(C)/C=N/c1ccc(Cc2nc(-c3ccc(Cl)cc3)cs2)cc1 [Example 51, N′-(4-{[4-(4-Chlorophenyl)-1,3-thiazol-2-yl]methyl}phenyl)-N-ethyl-N-methylimidoformamide hydrochloride]	0.25	–	–
–	CCN(C)/C=N/c1cc(C)c(Cc2nc(-c3cscn3)cs2)cc1C [Example 48, N′-[4-(4,4′-Bi-1,3-thiazol-2-ylmethyl)-2,5-dimethylphenyl]-N-ethyl-N-methylimidoformamide hydrochloride]	0.0078	0.0625	–
0.0625 (≈ 0.131 µM)	CCN(C)/C=N/c1cc(C)c(Cc2nc(-c3ccc(C(=O)NCC(C)(C)C)cc3)cs2)cc1C [Example 99, N-(2,2-Dimethylpropyl)-4-{2-[4-({(E)-[ethyl(methyl)amino]methylidene}amino)-2,5-dimethylbenzyl]-1,3-thiazol-4-yl}benzamide]	–	–	–
–	CCN(C)/C=N/c1cc(C)c(Cc2nc(C(=O)N(C)C3CCCCC3)cs2)cc1C [Example 71, N-Cyclohexyl-2-[4-({(E)-[ethyl(methyl)amino]methylidene}amino)-2,5-dimethylbenzyl]-N-methyl-1,3-thiazole-4-carboxamide hydrochloride]	0.0156	–	–
0.0313	CCN(C)/C=N/c1cc(C)c(Cc2nc(C(=O)c3ccc(C(F)(F)F)cc3)cs2)cc1C [Example 36, N′-{2,5-Dimethyl-4-[(4-{[4-(trifluoromethyl)phenyl]carbonyl}-1,3-thiazol-2-yl)methyl]phenyl}-N-ethyl-N-methylimidoformamide hydrobromide]	–	–	–
–	CCN(C)/C=N/c1cc(C)c(Cc2nc(C3CCOCC3)cs2)cc1C [Example 81, N′-(2,5-Dimethyl-4-{[4-(tetrahydro-2H-pyran-4-yl)-1,3-thiazol-2-yl]methyl}phenyl)-N-ethyl-N-methylimidoformamide]	–	–	MIC [3, 6]: 0.0156 µg/mL (≈ 0.042 µM)
–	CCN(C)/C=N/c1cc(C)c(Cc2nc(C(=O)NCc3ccccc3)cs2)cc1C [Example 44, N-Benzyl-2-[4-({(E)-[ethyl(methyl)amino]methylidene}amino)-2,5-dimethylbenzyl]-1,3-thiazole-4-carboxamide dihydrochloride]	0.0625	–	–
–	CCN(C)/C=N/c1cc(C)c(Cc2nc(-c3ccc(Cl)cc3)cs2)cc1C [Example 49, N′-(4-{[4-(4-Chlorophenyl)-1,3-thiazol-2-yl]methyl}-2,5-dimethylphenyl)-N-ethyl-N-methylimidoformamide hydrochloride]	–	0.0156	MIC [2, 7]: 0.0625 µg/mL
